From patent US11447502B2, “Antibacterial agents: dual-targeted RNA polymerase inhibitors” (priority 2018, dated 2022)
In brackets after ≈: the same amount, converted by molar mass.

Key:
Test in all cases: microbe, parasite or virus in culture
Assay type in all cases: cell-based
[1] = test system: rifampin-resistant M. tuberculosis 20626 (rpoB-H′526′D); details: Mycobacterium tuberculosis; read-out: antibacterial activity rifampin-resistant M. tuberculosis 20626 (rpoB-H′526′D) MIC
[2] = test system: rifampin-resistant M. tuberculosis 4457 (rpoB-H′526′Y); details: Mycobacterium tuberculosis; read-out: antibacterial activity rifampin-resistant M. tuberculosis 4457 (rpoB-H′526′Y) MIC
[3] = test system: rifampin-resistant M. tuberculosis 10545 (rpoB-S′531′L); details: Mycobacterium tuberculosis; read-out: antibacterial activity rifampin-resistant M. tuberculosis 10545 (rpoB-S′531′L) MIC

| SMILES | MIC [1] [µg/mL] | MIC [2] [µg/mL] | MIC [3] [µg/mL] |
| --- | --- | --- | --- |
| CO[C@H]1/C=C/O[C@@]2(C)Oc3c(C)c(O)c4c(O)c(c(/C=N/N5CCN(CCN6CCN(c7ccc(F)cc7NC(=O)C(Cc7ccccc7)NC(=O)c7ccccc7F)CC6)CC5)c(O)c4c3C2=O)NC(=O)/C(C)=C\C=C\[C@H](C)[C@H](O)[C@@H](C)[C@@H](O)[C@@H](C)[C@H](OC(C)=O)[C@@H]1C (some centres unmarked) [IX-403, Rifamycin SV—(CHN)—IX-402 Conjugate] | 25 (≈ 19.2 µM) | 12.5 (≈ 9.62 µM) | 12.5 (≈ 9.62 µM) |
| [2H]C([2H])(c1ccccc1)C(NC(=O)c1ccccc1F)C(=O)Nc1cc(F)ccc1N1CCN(/N=C/C2=C3NC(=O)/C(C)=C\C=C\[C@H](C)[C@H](O)[C@@H](C)[C@@H](O)[C@@H](C)[C@H](OC(C)=O)[C@H](C)[C@@H](OC)/C=C/O[C@@]4(C)Oc5c(C)c(O)c(c(c5C4=O)C2=O)C3=O)CC1 (some centres unmarked) [IX-476a, Rifamycin S—(CHN)—IX-370a Conjugate] |  | 3.13 (≈ 2.64 µM) | 6.25 (≈ 5.26 µM) |
